The values below come from BindingDB's records for doi:10.1016/j.bmcl.2016.10.061 (Ocean University of China, 2016).

A word on the IC50: it is the concentration that gives 50% inhibition.

In this assay the target is Proto-oncogene tyrosine-protein kinase receptor Ret (Homo sapiens) (UniProt P07949). As to the kind of experiment: Inhibition of CCDC6/RET (unknown origin) expressed in mouse BaF3 cells assessed as reduction in cell proliferation after 72 hrs by MTT assay. (Formazan colour is commonly taken as a measure of viable cells.)
Sequence of Proto-oncogene tyrosine-protein kinase receptor Ret (Homo sapiens) (P07949 whole entry, looked up): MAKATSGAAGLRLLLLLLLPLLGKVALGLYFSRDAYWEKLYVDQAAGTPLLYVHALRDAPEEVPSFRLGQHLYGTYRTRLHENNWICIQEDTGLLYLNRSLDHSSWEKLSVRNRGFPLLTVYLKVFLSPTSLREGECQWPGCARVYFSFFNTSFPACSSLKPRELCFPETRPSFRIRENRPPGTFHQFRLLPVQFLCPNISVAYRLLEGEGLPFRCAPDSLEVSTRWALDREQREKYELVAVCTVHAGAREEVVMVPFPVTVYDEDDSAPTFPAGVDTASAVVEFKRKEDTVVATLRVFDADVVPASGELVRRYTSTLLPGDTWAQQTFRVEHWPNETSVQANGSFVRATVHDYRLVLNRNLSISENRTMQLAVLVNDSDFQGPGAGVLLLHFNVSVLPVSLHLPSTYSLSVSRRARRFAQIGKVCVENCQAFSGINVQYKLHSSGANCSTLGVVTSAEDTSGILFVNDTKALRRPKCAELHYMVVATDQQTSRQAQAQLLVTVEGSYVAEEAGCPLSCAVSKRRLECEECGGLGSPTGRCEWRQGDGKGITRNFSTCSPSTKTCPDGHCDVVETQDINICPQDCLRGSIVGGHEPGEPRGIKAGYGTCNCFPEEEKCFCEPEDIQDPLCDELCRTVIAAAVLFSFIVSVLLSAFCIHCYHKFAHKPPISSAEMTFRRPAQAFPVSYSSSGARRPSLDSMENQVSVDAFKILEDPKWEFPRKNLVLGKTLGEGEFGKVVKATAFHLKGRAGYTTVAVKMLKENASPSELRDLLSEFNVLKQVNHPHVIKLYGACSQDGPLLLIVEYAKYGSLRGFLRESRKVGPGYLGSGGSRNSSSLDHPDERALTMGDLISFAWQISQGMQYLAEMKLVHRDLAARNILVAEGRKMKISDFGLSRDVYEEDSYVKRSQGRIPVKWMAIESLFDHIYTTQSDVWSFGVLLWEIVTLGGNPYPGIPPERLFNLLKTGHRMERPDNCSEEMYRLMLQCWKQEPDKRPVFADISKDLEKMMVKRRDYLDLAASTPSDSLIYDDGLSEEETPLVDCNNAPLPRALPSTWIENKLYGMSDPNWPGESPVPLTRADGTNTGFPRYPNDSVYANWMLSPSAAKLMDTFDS

On to `CN1CCN(Cc2ccc(NC(=O)c3ccc(Cl)c(-c4noc(-c5cncc(-c6cnn(C)c6)c5)n4)c3)cc2C(F)(F)F)CC1`, for which the IC50 worked out at 407 nM.
